# Laboratory results from US6479435B1, “Diaryl ethers and processes for their preparation and herbicidal and desiccant compositions containing them” (ISK Americas Incorporated, priority 1997, dated 2002).
# What was measured:
# Format in all cases: in vivo
# [1] = test system: large crabgrass (Digitaria sanguinalis, DIGSA); assay: Pre-emerge greenhouse herbicide test, phytotoxicity rating; settings: Digitaria sanguinalis, pre-emergence, 336 h, 14 days after application, rating scale 0-100; for pest or weed control at 125 g/ha: Rate 125 g al/ha; for pest or weed control at 500 g/ha: Rate 500 g al/ha
# Summary of the method: (§1)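 Visual 0–100 injury rating (100 = all plants dead) taken 14 days after treatment. Rates of 125–1000 g ai/ha in acetone, 187 l/ha, were sprayed onto soil one day post-sowing; pots were surface-watered to incorporate, then bottom-watered.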
# [2] = test system: redroot pigweed (Amaranthus retroflexus, AMARE); assay: as above; settings: Amaranthus retroflexus, pre-emergence, 336 h, 14 days after application, rating scale 0-100; for pest or weed control at 125 g/ha: Rate 125 g al/ha; for pest or weed control at 500 g/ha: Rate 500 g al/ha
# Summary of the method: as §1
# [3] = test system: lambsquarters (Chenopodium album, CHEAL); assay: as above; settings: Chenopodium album, pre-emergence, 336 h, 14 days after application, rating scale 0-100; for pest or weed control at 125 g/ha: Rate 125 g al/ha; for pest or weed control at 500 g/ha: Rate 500 g al/ha
# Summary of the method: as §1
# [4] = test system: ivyleaf morningglory (Ipomoea hederacea, IPOHE); assay: as above; settings: Ipomoea, pre-emergence, 336 h, 14 days after application, rating scale 0-100; for pest or weed control at 125 g/ha: Rate 125 g al/ha; for pest or weed control at 500 g/ha: Rate 500 g al/ha
# Summary of the method: as §1
# [5] = test system: sicklepod (Cassia obtusifolia, CASOB); assay: as above; settings: Senna obtusifolia, pre-emergence, 336 h, 14 days after application, rating scale 0-100; for pest or weed control at 125 g/ha: Rate 125 g al/ha; for pest or weed control at 500 g/ha: Rate 500 g al/ha
# Summary of the method: as §1
# [6] = test system: velvetleaf (Abutilon theophrasti, ABUTH); assay: as above; settings: Abutilon theophrasti, pre-emergence, 336 h, 14 days after application, rating scale 0-100; for pest or weed control at 125 g/ha: Rate 125 g al/ha; for pest or weed control at 500 g/ha: Rate 500 g al/ha
# Summary of the method: as §1
# [7] = test system: Johnsongrass (Sorghum halepense, SORHA); assay: Post-emerge greenhouse herbicide test, phytotoxicity rating; settings: Sorghum halepense, post-emergence, 336 h, 14 days after application, scale 0-100; for pest or weed control at 63 g/ha: rate 63 g ai/ha; for pest or weed control at 500 g/ha: rate 500 g ai/ha
# Summary of the method: (§2)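 Scores use a 0 (no damage) to 100 (complete kill) scale, taken 14 days after a foliar spray. Acetone solutions with 0.25% v/v non-ionic surfactant were applied by track sprayer at 187 l/ha and 63-1000 g ai/ha to bottom-watered 2-3 leaf plants.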
# [8] = test system: large crabgrass (Digitaria sanguinalis, DIGSA); assay: as above; settings: Digitaria sanguinalis, post-emergence, 336 h, 14 days after application, scale 0-100; for pest or weed control at 63 g/ha: rate 63 g ai/ha; for pest or weed control at 500 g/ha: rate 500 g ai/ha
# Summary of the method: as §2
# [9] = test system: redroot pigweed (Amaranthus retroflexus, AMARE); assay: as above; settings: Amaranthus retroflexus, post-emergence, 336 h, 14 days after application, scale 0-100; for pest or weed control at 63 g/ha: rate 63 g ai/ha; for pest or weed control at 500 g/ha: rate 500 g ai/ha
# Summary of the method: as §2
# [10] = test system: lambsquarters (Chenopodium album, CHEAL); assay: as above; settings: Chenopodium album, post-emergence, 336 h, 14 days after application, scale 0-100; for pest or weed control at 63 g/ha: rate 63 g ai/ha; for pest or weed control at 500 g/ha: rate 500 g ai/ha
# Summary of the method: as §2
# [11] = test system: barnyardgrass (Echinochloa crusgalli, ECHCG); assay: as above; settings: Echinochloa crus-galli, post-emergence, 336 h, 14 days after application, scale 0-100; for pest or weed control at 63 g/ha: rate 63 g ai/ha; for pest or weed control at 500 g/ha: rate 500 g ai/ha
# Summary of the method: as §2
# [12] = test system: ivyleaf morningglory (Ipomoea hederacea, IPOHE); assay: as above; settings: Ipomoea, post-emergence, 336 h, 14 days after application, scale 0-100; for pest or weed control at 63 g/ha: rate 63 g ai/ha; for pest or weed control at 500 g/ha: rate 500 g ai/ha
# Summary of the method: as §2
# [13] = test system: sicklepod (Cassia obtusifolia, CASOB); assay: as above; settings: Senna obtusifolia, post-emergence, 336 h, 14 days after application, scale 0-100; for pest or weed control at 63 g/ha: rate 63 g ai/ha; for pest or weed control at 500 g/ha: rate 500 g ai/ha
# Summary of the method: as §2
# [14] = test system: green foxtail (Setaria viridis, SETVI); assay: as above; settings: Setaria viridis, post-emergence, 336 h, 14 days after application, scale 0-100; for pest or weed control at 63 g/ha: rate 63 g ai/ha; for pest or weed control at 500 g/ha: rate 500 g ai/ha
# Summary of the method: as §2
# [15] = test system: velvetleaf (Abutilon theophrasti, ABUTH); assay: as above; settings: Abutilon theophrasti, post-emergence, 336 h, 14 days after application, scale 0-100; for pest or weed control at 63 g/ha: rate 63 g ai/ha; for pest or weed control at 500 g/ha: rate 500 g ai/ha
# Summary of the method: as §2
Compound,pest or weed control at 125 g/ha [1] [%],pest or weed control at 500 g/ha [1] [%],pest or weed control at 125 g/ha [2] [%],pest or weed control at 500 g/ha [2] [%],pest or weed control at 125 g/ha [3] [%],pest or weed control at 500 g/ha [3] [%],pest or weed control at 125 g/ha [4] [%],pest or weed control at 500 g/ha [4] [%],pest or weed control at 125 g/ha [5] [%],pest or weed control at 500 g/ha [5] [%],pest or weed control at 125 g/ha [6] [%],pest or weed control at 500 g/ha [6] [%],pest or weed control at 63 g/ha [7] [%],pest or weed control at 500 g/ha [7] [%],pest or weed control at 63 g/ha [8] [%],pest or weed control at 500 g/ha [8] [%],pest or weed control at 63 g/ha [9] [%],pest or weed control at 500 g/ha [9] [%],pest or weed control at 63 g/ha [10] [%],pest or weed control at 500 g/ha [10] [%],also measured
"Nn1c(C(F)(F)F)cc(=O)n(-c2cc(Oc3ccc([N+](=O)[O-])cc3C(F)(F)F)c(Cl)cc2F)c1=O [Compound 9-22, 1-Amino-3-[4-chloro-2-fluoro-5-(4-nitro-2-trifluoromethylphenoxy)phenyl]-6-trifluoromethyl-1,2,3,4-tetrahydropyrimidine-2,4-dione]",80,100,100,100,100,100,90,80,30,80,100,100,0,80,10,50,100,100,40,100,pest or weed control at 63 g/ha [11]: 20%; pest or weed control at 500 g/ha [11]: 90%; pest or weed control at 63 g/ha [12]: 100%; pest or weed control at 500 g/ha [12]: 100%; pest or weed control at 63 g/ha [13]: 30%; pest or weed control at 500 g/ha [13]: 70%; pest or weed control at 63 g/ha [14]: 10%; pest or weed control at 500 g/ha [14]: 80%; pest or weed control at 63 g/ha [15]: 100%; pest or weed control at 500 g/ha [15]: 100%
"Nn1c(C(F)(F)F)cc(=O)n(-c2cc(Oc3cc([N+](=O)[O-])cc(C(F)(F)F)c3)c(Cl)cc2F)c1=O [Compound 9-23, 1-Amino-3-[4-chloro-2-fluoro-5-(3-nitro-5-trifluoromethylphenoxy)phenyl]-6-trifluoromethyl-1,2,3,4-tetrahydropyrimidine-2,4-dione]",10,95,100,100,95,100,0,0,0,10,40,100,0,30,0,0,85,85,70,95,pest or weed control at 63 g/ha [11]: 0%; pest or weed control at 500 g/ha [11]: 50%; pest or weed control at 63 g/ha [12]: 50%; pest or weed control at 500 g/ha [12]: 75%; pest or weed control at 63 g/ha [13]: 10%; pest or weed control at 500 g/ha [13]: 30%; pest or weed control at 63 g/ha [14]: 0%; pest or weed control at 500 g/ha [14]: 10%; pest or weed control at 63 g/ha [15]: 45%; pest or weed control at 500 g/ha [15]: 90%
"Nn1c(C(F)(F)F)cc(=O)n(-c2cc(Oc3ccccc3C(F)(F)F)c(Cl)cc2F)c1=O [Compound 9-24, 1-amino-3-[4-chloro-2-fluoro-5-(2-trifluoromethylphenoxy)phenyl]-6-trifluoromethyl-1,2,3,4-tetrahydropyrimidine-2,4-dione]",90,100,95,100,100,100,30,30,30,0,99,100,30,70,40,75,100,100,100,100,pest or weed control at 63 g/ha [11]: 30%; pest or weed control at 500 g/ha [11]: 90%; pest or weed control at 63 g/ha [12]: 100%; pest or weed control at 500 g/ha [12]: 100%; pest or weed control at 63 g/ha [13]: 30%; pest or weed control at 500 g/ha [13]: 80%; pest or weed control at 63 g/ha [14]: 70%; pest or weed control at 500 g/ha [14]: 95%; pest or weed control at 63 g/ha [15]: 100%; pest or weed control at 500 g/ha [15]: 100%
"Nn1c(C(F)(F)F)cc(=O)n(-c2cc(Oc3ccccc3)c(Cl)cc2F)c1=O [Compound 9-26, 1-Amino-3-[4-chloro-2-fluoro-5-phenoxyphenyl]-6-trifluoromethyl-1,2,3,4-tetrahydropyrimidine-2,4-dione]",100,100,100,100,100,100,100,60,95,100,100,100,90,100,80,50,100,100,100,100,pest or weed control at 63 g/ha [11]: 80%; pest or weed control at 500 g/ha [11]: 100%; pest or weed control at 63 g/ha [12]: 100%; pest or weed control at 500 g/ha [12]: 100%; pest or weed control at 63 g/ha [13]: 100%; pest or weed control at 500 g/ha [13]: 100%; pest or weed control at 63 g/ha [14]: 100%; pest or weed control at 500 g/ha [14]: 100%; pest or weed control at 63 g/ha [15]: 100%; pest or weed control at 500 g/ha [15]: 100%
